Laboratory results: publication PMC9103244, “Novel Hybrid 1,2,4- and 1,2,3-Triazoles Targeting Mycobacterium Tuberculosis Enoyl Acyl Carrier Protein Reductase (InhA): Design, Synthesis, and Molecular Docking” (International Journal of Molecular Sciences, 2022)
Like-named read-outs stand apart in the source and are kept apart here.

Key:
M. tuberculosis InhA = target: T1, M. tuberculosis InhA (Mycobacterium tuberculosis, UniProt P9WGR1); experiment: InhA enzymatic inhibition assay (NADH oxidation at 340 nm); type: biochemical; details: for inhibition at 0.01 µM: compound at 10 nM, read-out: InhA enzyme inhibition percentage at 10 nM
T1 construct: made in house; host or cells: E. coli

[1] = target: mycobacterium tuberculosis InhA enzyme; parameters: method as in doi:10.1016/j.molstruc.2020.129148; details: literature lead structures; read-out: IC50 (InhA inhibitors, lead structures); cited from earlier work
[2] = 70 nM InhA, 2 h pre-incubation, pH 6.8, 25 °C, 35 μM trans-2-decenoyl-CoA, 200 μM NADH, read-out: IC50, inhibitory effect against InhA

T1 sequence (P9WGR1 whole entry, looked up): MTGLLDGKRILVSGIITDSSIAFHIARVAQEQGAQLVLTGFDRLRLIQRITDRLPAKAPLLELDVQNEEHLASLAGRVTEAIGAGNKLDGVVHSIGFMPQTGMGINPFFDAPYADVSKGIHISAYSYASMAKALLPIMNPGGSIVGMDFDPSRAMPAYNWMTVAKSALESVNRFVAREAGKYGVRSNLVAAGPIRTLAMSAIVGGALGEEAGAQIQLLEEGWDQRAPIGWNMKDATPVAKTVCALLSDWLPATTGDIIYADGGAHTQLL

SMILES | melting point [°C] | IC50 (M. tuberculosis InhA; [2]) [nM] | IC50 [1] [nM] | IC50 (M. tuberculosis InhA) [nM] | inhibition at 0.01 µM (M. tuberculosis InhA) [%] | IC50 (M. tuberculosis InhA; read-out: IC50, inhibitory effect against InhA, 70 nM InhA, 2 h pre-incubation, pH 6.8, 25 °C, 35 μM trans-2-decenoyl-CoA, 200 μM NADH) [nM]
Sc1nnc(Cc2ccccc2)n1/N=C/c1cccs1 [4a, 5.-benzyl-4-((thiophen-2-ylmethylene)amino)-2,4-dihydro-3H-1,2,4-triazole-3-thione] | 184 to 186 | 53.2 | – | – | – | –
CNC(=O)CN(Cc1ccc(F)cc1)C(=O)C[C@H]1CC[C@@H](NC(=O)c2nnn(Cc3ccccc3)c2C)CC1 [Lead structure B] | – | – | 57 | – | – | –
S=c1[nH]nc(Cc2ccccc2)n1/N=C/c1ccc(N2CCOCC2)cc1 [4c, (E)-5-benzyl-4-((4-morpholinobenzylidene)amino)-2,4-dihydro-3H-1,2,4-triazole-3-thione] | – | 8.16 | – | – | – | –
Cc1nc(C)n(CCCNc2ccc(C(=O)Nc3ccc(F)c(Oc4ccccc4)c3)cn2)n1 [Lead structure A] | – | – | 906 | – | – | –
O=C(O)c1ccc(-n2cc(CSc3nnc(Cc4ccccc4)n3/N=C/c3cccc4c3OCO4)nn2)cc1 [7c, (E)-4-(4-(((4-((benzo[d][1,3]dioxol-4-ylmethylene)amino)-5-benzyl-4H-1,2,4-triazol-3-yl)thio)methyl)-1H-1,2,3-triazol-1-yl)benzoic acid] | 188 | – | – | 0.074 | 100 | –
CC(=O)c1ccc(-n2cc(CSc3nnc(Cc4ccccc4)n3/N=C/c3cccc4c3OCO4)nn2)cc1 [7d] | 196 | – | – | – | 100 | 0.18
C#CCSc1nnc(Cc2ccccc2)n1/N=C/c1ccc(N2CCOCC2)cc1 [5c] | 236 | 0.23 | – | – | 100 | –
O=C(O)c1ccc(-n2cc(CSc3nnc(Cc4ccccc4)n3/N=C/c3cccs3)nn2)cc1 [7a, (E)-4-(4-(((5-benzyl-4-((thiophen-2-ylmethylene)amino)-4H-1,2,4-triazol-3-yl)thio)methyl)-1H-1,2,3-triazol-1-yl)benzoic acid] | 196 | 6.18 | – | – | – | –
Sc1nnc(Cc2ccccc2)n1/N=C/c1cccc2c1OCO2 [4b] | 164 | 9.16 | – | – | – | –
CC(=O)c1ccc(-n2cc(CSc3nnc(Cc4ccccc4)n3/N=C/c3cccs3)nn2)cc1 [7b] | 196 | – | – | 12.5 | – | –
O=C(O)c1ccc(-n2cc(CSc3nnc(Cc4ccccc4)n3/N=C/c3ccc(N4CCOCC4)cc3)nn2)cc1 [7e, (E)-4-(4-(((5-benzyl-4-((4-morpholinobenzylidene)amino)-4H-1,2,4-triazol-3-yl)thio)methyl)-1H-1,2,3-triazol-1-yl)benzoic acid] | 192 | – | – | 0.13 | 100 | –
CC(=O)c1ccc(-n2cc(CSc3nnc(Cc4ccccc4)n3/N=C/c3ccc(N4CCOCC4)cc3)nn2)cc1 [7f] | 198 to 200 | 0.25 | – | – | 100 | –
C#CCSc1nnc(Cc2ccccc2)n1/N=C/c1cccc2c1OCO2 [5b, (E)-1-(benzo[d][1,3]dioxol-4-yl)-N-(3-benzyl-5-(prop-2-yn-1-ylthio)-4H-1,2,4-triazol-4-yl)methanimine] | 140 | 0.66 | – | – | 100 | –
C#CCSc1nnc(Cc2ccccc2)n1/N=C/c1cccs1 [5a, (E)-N-(3-benzyl-5-(prop-2-yn-1-ylthio)-4H-1,2,4-triazol-4-yl)-1-(thiophen-2-yl)methanimine] | 98 | 5.61 | – | – | – | –
